Among the test systems are SK-MEL-5 melanoma; SK-OV-3 ovarian; DMS 114 small cell lung; SF-295 CNS; UACC-257 melanoma; HCT-15 colon; DMS 273 small cell lung; OVCAR-5 ovarian; SK-MEL-2 melanoma; HS 578T breast.
Assay in all cases: NCI-60 cell line screen, 48 h

The structures appear in SMILES notation. Where “and” joins values, the source holds several entries; their conditions need not be identical. Identical values can stand only once.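 Step 1: Grow cells in 96-well plates. Step 2: Expose to compound for 48 hours at 5 concentrations. Step 3: Interpolate endpoints linearly; if unreached, use highest concentration. At the GI50, growth is halved. TGI: concentration producing complete growth inhibition.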

On to `O=C(CCCN1CCC(C(O)c2ccc(F)cc2)CC1)c1ccc(F)cc1` (stereo not given), for which the TGI stood at 99.3 µM in the test on SK-MEL-5 melanoma; 138 µM in the test with SK-OV-3 ovarian; 108 µM in the test with DMS 114 small cell lung; 118 µM in the test with SF-295 CNS; 121 µM in the test with UACC-257 melanoma; 123 µM in the test with HCT-15 colon. Moreover, the TGI with DMS 273 small cell lung amounted to 118 µM; in the test on OVCAR-5 ovarian it was 116 µM; in the test on SK-MEL-2 melanoma, 113 µM; in the test with HS 578T breast, 116 µM.
On to `COc1ccc(NC(=O)CC(=O)n2nc(C)c(N=Nc3ccccc3C(=O)O)c2C)cc1`, for which the TGI in the test on SK-MEL-5 melanoma is > 100 µM; with SK-OV-3 ovarian, 94.2 µM; in the test on DMS 114 small cell lung, > 100 µM; in the test with SF-295 CNS, > 100 µM; in the test on UACC-257 melanoma it was > 100 µM; in the test on HCT-15 colon it was > 100 µM. The TGI in the test on DMS 273 small cell lung, in the test with OVCAR-5 ovarian and in the test on SK-MEL-2 melanoma was > 100 µM throughout.
Turning to `Cc1c2c(c(C)c3c1[nH]c1ccccc13)CN(C)CC2`, the TGI worked out at 26.1 µM in the test on SK-MEL-5 melanoma; 70.1 µM in the test with SK-OV-3 ovarian; 28.5 µM in the test with DMS 114 small cell lung; 31.7 µM in the test on SF-295 CNS; 31.4 µM with UACC-257 melanoma; 31 µM with HCT-15 colon. In addition, the results for the TGI in the test with DMS 273 small cell lung, in the test on OVCAR-5 ovarian and in the test with SK-MEL-2 melanoma were 34.3 µM, > 100 µM and 31.1 µM, respectively.
Regarding `c1ccc(OCc2nnc3n2N=C(c2ccccc2)CS3)cc1`, the TGI with SK-MEL-5 melanoma, with SK-OV-3 ovarian, in the test with DMS 114 small cell lung, in the test on SF-295 CNS, in the test with UACC-257 melanoma and in the test with HCT-15 colon was > 100 µM in each case. Besides, the TGI in the test with DMS 273 small cell lung, in the test with OVCAR-5 ovarian and in the test with SK-MEL-2 melanoma was > 100 µM each time.
Consider `COc1cccc(SSc2cccc(OC)c2C(=O)O)c1C(=O)O`, for which the TGI in the test with SK-MEL-5 melanoma, with SK-OV-3 ovarian, in the test on DMS 114 small cell lung, in the test with SF-295 CNS, in the test with UACC-257 melanoma and in the test with HCT-15 colon was > 100 µM each time. The TGI with DMS 273 small cell lung, in the test on OVCAR-5 ovarian and in the test on SK-MEL-2 melanoma was > 100 µM each time.
With `N#CC1=C(O)NC(O)=C(C#N)C1c1ccc(C2C(C#N)=C(O)NC(O)=C2C#N)cc1`, the TGI with SK-MEL-5 melanoma, in the test on SK-OV-3 ovarian, in the test with DMS 114 small cell lung, in the test with SF-295 CNS, in the test with UACC-257 melanoma and with HCT-15 colon was > 100 µM throughout. The TGI in the test on DMS 273 small cell lung and with SK-MEL-2 melanoma was > 100 µM each time.
`CC(=O)OC1=CC2(OC(C)=O)CC(C)(C)C1C1C(=O)C=CC(=O)C12` (stereo not given): the TGI in the test on SK-MEL-5 melanoma, in the test with SK-OV-3 ovarian, in the test with DMS 114 small cell lung, with SF-295 CNS, with UACC-257 melanoma and in the test with HCT-15 colon was > 100 µM each time. In addition, the TGI in the test on DMS 273 small cell lung, in the test with OVCAR-5 ovarian and in the test on SK-MEL-2 melanoma was > 100 µM throughout.
As to `CC1=Nc2c([nH]c(=S)[nH]c2=O)NC(c2c(Cl)cccc2Cl)C1` (stereo not given), the TGI in the test on SK-MEL-5 melanoma is 9.99 µM; in the test with SK-OV-3 ovarian it was 18.1 µM; with DMS 114 small cell lung, 13.8 µM; in the test with SF-295 CNS it was 4.41 µM; with UACC-257 melanoma it was 9.4 µM; in the test on HCT-15 colon, 8.67 µM. Moreover, the TGI is 4.4 µM in the test with DMS 273 small cell lung, 11.9 µM with OVCAR-5 ovarian, 32.9 µM in the test on SK-MEL-2 melanoma and 17.1 µM with HS 578T breast.
Regarding `CC([O-])=C1C(=O)c2ccccc2C1=O.CC([O-])=C1C(=O)c2ccccc2C1=O.CC[O-].CC[O-].[Ti+4]`, the GI50 with SK-MEL-5 melanoma, with SK-OV-3 ovarian, in the test with DMS 114 small cell lung, in the test with SF-295 CNS, in the test on UACC-257 melanoma and in the test on HCT-15 colon was > 100 µM in each case. Also, the GI50 with DMS 273 small cell lung, in the test with OVCAR-5 ovarian and in the test with SK-MEL-2 melanoma was > 100 µM in each case. Also, the TGI in the test with SK-MEL-5 melanoma, in the test with SK-OV-3 ovarian, in the test with DMS 114 small cell lung, in the test on SF-295 CNS, with UACC-257 melanoma and in the test on HCT-15 colon was > 100 µM each time. For the same molecule, the TGI in the test with DMS 273 small cell lung, with OVCAR-5 ovarian and with SK-MEL-2 melanoma was > 100 µM in each case.
`O=c1[nH]cnc2c(COCCO)c[nH]c12`: the TGI with SK-MEL-5 melanoma, in the test on SK-OV-3 ovarian, in the test on DMS 114 small cell lung, in the test on SF-295 CNS, in the test on UACC-257 melanoma and in the test on HCT-15 colon was > 100 µM each time. Besides, the TGI in the test on DMS 273 small cell lung, in the test with OVCAR-5 ovarian and with SK-MEL-2 melanoma was > 100 µM in each case.
`Cc1ccc(S(=O)(=O)N/N=C/C(C)C)cc1`: the TGI in the test on SK-MEL-5 melanoma, in the test on SK-OV-3 ovarian, with DMS 114 small cell lung, in the test with SF-295 CNS, with UACC-257 melanoma and in the test with HCT-15 colon was > 100 µM in each case. In addition, the TGI in the test on DMS 273 small cell lung, in the test on OVCAR-5 ovarian and in the test on SK-MEL-2 melanoma was > 100 µM throughout.
Take `CCCCCCCCCCCc1c(O)c(=O)c2c(oc3c(=O)c(CCCCCCCCCCC)c(O)c(=O)c3n2-c2ccc(N(C)C)cc2)c1=O`: the TGI in the test with SK-MEL-5 melanoma was 34 µM; with SK-OV-3 ovarian, 37.9 µM; with DMS 114 small cell lung it was 57.7 µM; in the test with SF-295 CNS it was 46.2 µM; with UACC-257 melanoma, 40.2 µM; in the test on HCT-15 colon it was 35.6 µM. The TGI was determined as 56.3 µM with DMS 273 small cell lung, 50.9 µM in the test with OVCAR-5 ovarian and 50.4 µM in the test on SK-MEL-2 melanoma.
As for `CC1OC(CC(=O)O)CC2=C1C(=O)c1c(O)cccc1C2=O` (stereo not given), the TGI in the test on SK-MEL-5 melanoma came to 1.15 µM; with SK-OV-3 ovarian, 12.7 µM; in the test with DMS 114 small cell lung it was 0.288 µM; in the test with SF-295 CNS it was 2.51 µM; with UACC-257 melanoma, 0.228 µM; with HCT-15 colon, 0.183 µM. The TGI is 0.594 µM in the test with DMS 273 small cell lung, 2.86 µM with OVCAR-5 ovarian, 1.14 µM in the test on SK-MEL-2 melanoma and 0.452 µM in the test on HS 578T breast.
Turning to `COc1ccc2c(c1)-c1nn(CCCN(C)C)c3ccc([N+](=O)[O-])c(c13)N2`, the TGI with SK-MEL-5 melanoma was 2 µM and 2.92 µM; with SK-OV-3 ovarian it was 1.86 µM and 7.69 µM; with DMS 114 small cell lung, 4.24 µM and 13.8 µM; with SF-295 CNS, 3.76 µM and 3.07 µM; in the test on UACC-257 melanoma, 3.26 µM and 10.9 µM; in the test on HCT-15 colon it was 2.38 µM and 13.5 µM. Besides, the TGI in the test on DMS 273 small cell lung is 1.86 µM and 4.99 µM; in the test with OVCAR-5 ovarian, 3.46 µM and 9.7 µM; in the test with SK-MEL-2 melanoma, 4.28 µM and 4.55 µM; in the test on HS 578T breast, 3.17 µM and 3.24 µM. The GI50 in the test on SK-OV-3 ovarian is 0.175 µM and 0.866 µM; with DMS 114 small cell lung it was 0.202 µM and 0.543 µM; in the test with SF-295 CNS it was 0.175 µM and 0.389 µM; in the test with UACC-257 melanoma it was 0.455 µM and 1.1 µM; with HCT-15 colon, 0.142 µM and 0.541 µM; in the test on OVCAR-5 ovarian, 0.356 µM and 1.35 µM. The GI50 with HS 578T breast is 0.355 µM.

The values are drawn from PubChem BioAssay (NCI).
